Test results taken from patent US20220023552A1, “KIT FOR INHALED CHEMOTHERAPY, AND TREATMENT OF LUNG CANCER WITH SAID KIT” (UNIVERSITÉ LIBRE DE BRUXELLES, priority 2018, published 2022).

What was measured:
M109-HiFR-LUC2 cells [1] = assay: ex vivo bioluminescence analysis of tumor localization (resected lungs vs chest cavity); assay type: in vivo, BALB/c mice; settings: Example 3 additional experiment, day 19 post engraftment
Experimental: Briefly, under anesthesia, 6 to 7-week-old BALB/c mice were grafted with 1.4 million M109-HiFR-LUC2 cells in 20 μL of a 50:50 v/v mix of folate-free RPMI/Matrigel® injected intercostally after incision of the skin and dissection of subcutaneous muscles. The different tissue incisions were stitched with a 3-0 silk (Ethicon®, St-Stevens-Woluwe, Belgium). The mice were closely observed until complete recovery. The therapeutic response of the M109 model to cisplatin was evaluated by in vivo optical imaging (bioluminescence) and survival analysis. Bioluminescence is directly proportional to the number of living M109-HiFR-LUC2 tumor cells. Bioluminescence was performed up to day 19 post tumor cell engraftment using a Photonlmager RT (Biospace Lab, France) using the conventional supplier's protocol. Mice were weighted three times a week and sacrificed if their weight loss exceeded 20% from the beginning of the experiment or 15% from the last measurement or if they were suffocating. In these cases, the mouse death was notified as occurred the day after.
An additional experiment was performed evaluating cisplatin DPI according to example 1 vs cisplatin IV on the same lung cancer mice model. […]

M109-HiFR-LUC2 cells [2] = assay: tumor growth by in vivo bioluminescence in orthotopic lung cancer mice model; design: species or system BALB/c mice; settings: Example 4; p<0.05 for combination, p>0.05 for cisplatin IV
Experimental: The orthotopic intrapulmonary implantation procedure was performed using an adaption of the protocol described previously (Wauthoz et al., Nanomedicine 2015). Briefly, under anesthesia, 6 to 7-week-old BALB/c mice were grafted with 1.4 million M109-HiFR-LUC2 cells in 20 μL of a 50:50 v/v mix of folate-free RPMI/Matrigel® injected intercostally after incision of the skin and dissection of subcutaneous muscles. The different tissue incisions were stitched with a 3-0 silk (Ethicon®, St-Stevens-Woluwe, Belgium). The mice were closely observed until complete recovery. The therapeutic response of the M109 model to cisplatin was evaluated by in vivo optical imaging (bioluminescence) and survival analysis. Bioluminescence is directly proportional to the number of living M109-HiFR-LUC2 tumor cells. […]
The protocol described in example 3 has been reproduced, except that survival rates were also determined (no euthanasia on day 19 and no ex vivo bioluminescence analysis), the treatment started on day 6 according to the scheme table 3 below and that three groups of 4-15 mice were compared: […]
The protocol described in example 3 has been reproduced, except that survival rates were also determined (no euthanasia on day 19 and no ex vivo bioluminescence analysis), the treatment started on day 3 according to the scheme table 5 below and three groups of 8-16 mice were compared: […]

[3] = geometrical particle size distribution (PSD) by laser diffraction; assay type: physicochemical; settings: mean ± SD, n = 3
Experimental: The geometrical PSD of bulk cisplatin, cisplatin microparticles from the size-reduction process, and cisplatin dry powder formulation, was measured as suspended and individualized particles. This was done using a Mastersizer 3000 laser diffractometer (Malvern Instruments Ltd., Worcestershire, UK) connected to a Hydro MV dispenser equipped with a 40 W ultrasonic probe (Malvern Instruments Ltd.). Measurements of bulk cisplatin and aliquots of cisplatin microparticles from the size-reduction process were performed in cisplatin-saturated isopropanol. […] The geometrical PSD of bulk cisplatin, cisplatin microparticles from the size-reduction process, and cisplatin dry powder formulation, was measured as suspended and individualized particles as described in the Example 1 and are presented in table 2.

[4] = Table 1, materials of Example 1
[5] = Table 2, materials of Example 2

Compound	tumor growth in the chest, cisplatin IV compared with cisplatin DPI (FIG. 3) (M109-HiFR-LUC2 cells [1]; chest cavity = loco-regional metastases)	tumor growth in the lungs, cisplatin IV compared with cisplatin DPI (FIG. 3) (M109-HiFR-LUC2 cells [1]; resected lungs = primary lung tumors)	significance of the decrease in tumor growth versus untreated control (1-way ANOVA) (M109-HiFR-LUC2 cells [2])	D50 (volume median diameter) [3, 4]	D[4,3] (volume mean diameter) [3, 4]	D50 (volume median diameter) [3, 5]	D[4,3] (volume mean diameter) [3, 5]
N.N.[Cl][Pt][Cl] [cisplatin IV, cisplatin]	decrease of tumor growth in the chest	similar	not				
N.N.[Cl][Pt][Cl] [Raw cisplatin, cisplatin]				16.5 ± 3.6 μm	18.9 ± 4.3 μm	6.3 ± 0.1 μm	7.1 ± 0.2 μm
